This experiment deals with P2Y purinoceptor 6 (Homo sapiens, UniProt Q15077). In words: Stimulation of phospholipase C in 1321N1 astrocytoma cells transfected with human P2Y6 receptor. Type of experiment: cell-based.
P2Y purinoceptor 6, sequence (Q15077 whole entry): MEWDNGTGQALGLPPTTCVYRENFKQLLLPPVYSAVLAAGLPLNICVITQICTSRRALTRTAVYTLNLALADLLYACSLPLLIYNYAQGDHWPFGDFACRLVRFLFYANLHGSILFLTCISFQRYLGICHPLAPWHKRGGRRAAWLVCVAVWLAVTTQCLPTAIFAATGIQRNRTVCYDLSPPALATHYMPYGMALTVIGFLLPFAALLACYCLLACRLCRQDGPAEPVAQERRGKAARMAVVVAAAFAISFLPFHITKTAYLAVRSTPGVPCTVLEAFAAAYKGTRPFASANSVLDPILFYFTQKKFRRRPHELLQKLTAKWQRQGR

As usually defined, the EC50 is the concentration that produces a half-maximal response. Take `O=c1ccn([C@@]23C[C@H](O)[C@@H](COP(=O)(O)OP(=O)(O)O)[C@@H]2C3)c(=O)[nH]1`: for the setting “read-out: EC50”, the EC50 was found to be 230 nM.
As for `O=c1ccn([C@H]2[C@H](O)[C@H](O)[C@@]3(COP(=O)(O)OP(=O)(O)O)C[C@H]23)c(=O)[nH]1`, the EC50 entry is given as “Not Active”.
For `O=c1ccn([C@H]2C[C@H](O)[C@@H](COP(=O)(O)OP(=O)(O)O)O2)c(=O)[nH]1`, the EC50 (read-out: EC50) was determined as 1720 nM.
Regarding `O=c1ccn([C@@H]2O[C@H](COP(=O)(O)OP(=O)(O)O)[C@@H](O)[C@H]2O)c(=O)[nH]1` [URIDINE_DIPHOSPHATE], the EC50 (read-out: EC50) came out at 86 nM.

For the origin of these results see ChEMBL document CHEMBL1140428, “Human P2Y(6) receptor: molecular modeling leads to the rational design of a novel agonist based on a unique conformational preference” (J Med Chem, 2005).
